# Measured values reported in the supplement of paper PMC10307832.
# Experiments:
# Assay in all cases: relative viability (nuclei count vs DMSO), 5 days (fraction); higher = more cells survive
# R406 + Dasatinib = compound: COc1cc(Nc2ncc(F)c(Nc3ccc4c(n3)NC(=O)C(C)(C)O4)n2)cc(OC)c1OC [R406] + Cc1nc(Nc2ncc(C(=O)Nc3c(C)cccc3Cl)s2)cc(N2CCN(CCO)CC2)n1 [Dasatinib] (partner 0.075 µM)
# Method in brief: (§1)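 Relative viability divides the nuclei count in treated wells by that in vehicle wells. Lung cancer cell lines were seeded in 1536-well plates, dosed by pin tool the next day, and fixed and stained after 5 days in one step with final 0.05% Triton X-100, 1% formaldehyde and 1 ug/ml Hoechst. Dosing was a single drug or a fixed anchor-drug dose plus five library-drug doses (not always all listed) in √10 steps, and values are medians of duplicate plates imaged at 4×.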
# Daporinad + Bortezomib = compound: O=C(/C=C/c1cccnc1)NCCCCC1CCN(C(=O)c2ccccc2)CC1 [Daporinad] + CC(C)C[C@H](NC(=O)[C@H](Cc1ccccc1)NC(=O)c1cnccn1)B(O)O [Bortezomib] (partner 0.002 µM)
# Method in brief: as §1
# Daporinad + Tozasertib = compound: O=C(/C=C/c1cccnc1)NCCCCC1CCN(C(=O)c2ccccc2)CC1 [Daporinad] + Cc1cc(Nc2cc(N3CCN(C)CC3)nc(Sc3ccc(NC(=O)C4CC4)cc3)n2)n[nH]1 [Tozasertib] (partner 0.1 µM)
# Method in brief: as §1
# Daporinad + Pemetrexed = compound: O=C(/C=C/c1cccnc1)NCCCCC1CCN(C(=O)c2ccccc2)CC1 [Daporinad] + Nc1nc2[nH]cc(CCc3ccc(C(=O)N[C@@H](CCC(=O)O)C(=O)O)cc3)c2c(=O)[nH]1 [Pemetrexed] (partner 0.2 µM)
# Method in brief: as §1
Cell Line,relative viability (R406 + Dasatinib; first compound 0.08 µM),relative viability (R406 + Dasatinib; first compound 0.253 µM),relative viability (R406 + Dasatinib; first compound 0.8 µM),relative viability (R406 + Dasatinib; first compound 2.53 µM),relative viability (R406 + Dasatinib; first compound 8 µM),relative viability (Daporinad + Bortezomib; first compound 0.0005 µM),relative viability (Daporinad + Bortezomib; first compound 0.001581 µM),relative viability (Daporinad + Bortezomib; first compound 0.005 µM),relative viability (Daporinad + Bortezomib; first compound 0.01581 µM),relative viability (Daporinad + Tozasertib; first compound 0.0005 µM),relative viability (Daporinad + Tozasertib; first compound 0.001581 µM),relative viability (Daporinad + Tozasertib; first compound 0.005 µM),relative viability (Daporinad + Tozasertib; first compound 0.01581 µM),relative viability (Daporinad + Pemetrexed; first compound 0.0005 µM),relative viability (Daporinad + Pemetrexed; first compound 0.005 µM),relative viability (Daporinad + Pemetrexed; first compound 0.01581 µM),relative viability (Daporinad + Pemetrexed; first compound 0.001581 µM)
HCC-366,0.62,0.799,0.735,0.546,0.235,0.971,1.1,1.12,1.04,0.103,0.0734,0.124,0.171,0.187,0.152,0.104,–
HCC-827,0.309,0.252,0.325,0.312,0.229,1.06,0.965,1.14,1.13,0.428,0.445,0.513,0.446,0.295,0.281,0.256,0.268
HOP-62,0.618,0.73,0.797,0.729,0.391,–,0.84,0.962,0.26,0.379,0.432,0.332,0.353,0.297,0.284,0.282,0.32
IA-LM,–,–,–,–,–,0.746,0.807,0.872,0.491,–,–,–,–,–,–,–,–
LC-2-ad,0.572,0.649,0.62,0.282,0.203,0.978,1.07,0.952,0.844,0.516,0.544,0.459,0.427,0.263,0.285,0.256,0.27
LK-2,0.26,0.303,0.285,0.346,0.201,–,–,–,–,0.17,0.168,0.194,0.169,0.314,0.188,0.142,0.331
NCI-H358,0.165,0.171,0.113,0.143,0.132,–,–,–,–,0.0969,0.0872,0.11,0.0799,0.199,0.183,0.185,0.168
NCI-H522,0.78,0.883,0.869,0.725,0.722,–,–,–,–,0.599,0.533,0.484,0.433,0.983,1.09,0.668,1.3
NCI-H727,0.347,0.432,0.369,–,0.3,0.813,0.798,0.838,0.858,0.737,0.608,0.555,0.62,–,–,–,–
NCI-H1299,–,–,–,–,–,1.02,1.02,1.04,1.04,–,–,–,–,–,–,–,–
NCI-H1395,0.441,0.444,0.434,0.399,0.356,–,–,–,–,0.7,0.764,0.771,0.839,0.839,0.896,0.927,1.05
NCI-H1563,0.438,0.507,0.448,0.473,0.376,0.917,0.958,0.838,0.691,–,–,–,–,0.722,0.873,0.641,0.655
NCI-H1623,0.534,0.507,0.587,0.482,0.526,–,–,–,–,0.438,0.44,0.39,0.445,–,–,–,–
NCI-H1648,–,–,–,–,–,–,–,–,–,0.362,0.652,0.416,0.6,0.596,0.843,0.769,0.617
NCI-H1703,–,–,–,–,–,0.403,0.382,0.422,0.196,–,–,–,–,–,–,–,–
NCI-H1792,0.781,0.906,0.871,0.551,0.401,0.924,0.98,0.711,1,–,–,–,–,0.721,0.76,0.674,1.02
NCI-H1793,0.407,0.466,0.423,0.184,0.164,–,–,–,–,0.327,0.326,0.34,0.553,0.727,1,1.05,1.03
NCI-H1944,0.22,0.207,0.209,0.164,0.153,–,–,–,–,0.273,0.252,0.261,0.286,0.607,0.706,0.577,0.716
NCI-H2170,0.481,0.579,0.613,0.267,0.324,–,–,–,–,0.694,0.742,0.668,0.849,0.277,0.252,0.252,0.25
NCI-H2342,0.309,0.321,0.341,0.303,0.277,–,–,–,–,0.53,0.524,0.51,0.445,0.782,0.862,0.819,0.739
SK-MES-1,0.397,0.371,0.363,0.137,0.136,–,–,–,–,0.85,0.948,1.08,0.865,1.04,0.955,0.64,0.816
SW 900,0.592,0.384,0.79,0.23,0.0973,–,–,–,–,0.638,0.473,0.735,0.346,0.486,0.506,0.496,–
